Here are results for 1 substance from patent US10933114B2, “Nutritional supplements containing a peptide component and uses thereof” (Mead Johnson Nutrition Company, priority 2014, dated 2021).

Holding throughout (type): in vivo
Test [1] deals with LDLr knockout mice. Put plainly: Liver function marker ALAT in pooled plasma (Examples 1 and 2). The protocol: (§1) Blood samples were takes in week 0, 3, 6, 9, 15 and 21 after 5 hours of fasting. Blood glucose was measured using hand-held glucometer immediately. Plasma cholesterol and plasma triglyceride levels were assayed immediately in fresh EDTA-plasma. The remainder of the plasma was stored at −80° C. for analysis of insulin and ALAT, and for possible other additional follow-up analysis. Faecal samples were collected over a 48 hour period at cage level in week 0, 9, and 21. Additionally, individual faecal samples were collected in week 21 to allow individual faecal analysis. Total body fat and lean body mass were assessed non-invasively by EchoMR1 in week 0, 9, 15, and 21. Mice were placed in a constraint tube which was then inserted into the EchoMR1 for a period of approximately 30 seconds. During that time, total body fat and lean body mass were calculated and recorded and the mouse was removed from the apparatus.
ALAT levels were measured at baseline, week 9 and week 21 in pooled plasma. Baseline levels were low (11 U/L). Upon HFD feeding, ALAT levels increased to 58 U/L in week 9 and further increased to 187 U/L in week 21 in the HFD group. For comparison, ALAT levels in chow fed mice reached levels of approximately 52 U/L in week 21 (data from other study). […] Also ALAT level in LGG treated mice were lower compared to HFD (66 U/L in week 9 and 124 U/L in week 21). […]

In test [2] the test system is LDLr knockout mice. Kind of test: Body weight and food intake in LDLr knockout mice on high fat diet, 21 weeks (Examples 1 and 2, Study 2). The source says:
Both the high fat diet and the tested diets with the peptide component, LCPUFA, and LGG were isocaloric. A control diet (low fat, 10% kcal by fat) served as a reference group. The first study, indicated as Study 1 in Table 3 below, compared the mice on the high fat diet, to mice on a high fat diet supplemented with a combination of the peptide component, LCPUFA, and LGG. Whereas, the second study, indicated as Study 2 in Table 3 below, examined the effects on the mice of the individual ingredients.
Example 1 describes the experimental procedures for evaluating metabolic, and cardiovascular risk factors in LDLr knockout mice fed and HFD and supplemented with a peptide component, LCPUFA, and LGG.
The mice used were LDLr knockout mice, which phenotypically express the main risk factors that are characteristic for metabolic syndrome and that are hallmarks of human disease. Experiments were performed to conform to the rules and regulations set forward by the Netherlands Law on Animal Experiments and were approved by a Committee on Animal Experiments (DEC; approval number 3486).
Sixty-seven male LDLr−/− mice (11-18 weeks of age at the start of the experiment) obtained from the breeding facility at TNO were used. […]

Test [3] concerns LDLr knockout mice. Kind of test: Fasting plasma cholesterol and triglycerides (Examples 1 and 2). The protocol: (§2) At t=0 mice were matched into experimental groups based on blood glucose (primary matching parameter) and body weight (secondary matching parameter). The control group received a lard based high fat diet (HFD 45 kcal % from lard; diet D12451 Research Diets, New Brunswick, USA) containing 23.7% w/w protein, 41.4% w/w carbohydrates and 23.6% w/w fat.
as §1
Blood glucose was measured immediately using a hand-held glucometer. Total plasma cholesterol and triglyceride levels were measured using kits No. 11489437 and 11488872 (Roche Diagnostics, Almere, The Netherlands), respectively. The plasma levels of insulin (Ultrasensitive mouse insulin ELISA, Merdocia, Uppsala, Sweden) were determined by ELISA.
(§3) Example 2 describes the experimental procedures for evaluating metabolic, and cardiovascular risk factors in LDLr knockout mice fed a HFD supplemented with a >500 Da peptide fraction of the Peptide component. The same experimental procedures and methodologies as employed in Example 1 were used in Example 2.

The test system of test [4] is LDLr knockout mice. Kind of test: Fasting blood glucose, plasma insulin and HOMA-IR (Examples 1 and 2). The protocol: as §2
as §1, with “Additionally, individual faecal samples were collected in week 21 to allow individual faecal analysis.” left out, “Mice were placed in a constraint tube which was then inserted into the EchoMR1 for a period of approximately 30 seconds.” left out
Blood glucose was measured immediately using a hand-held glucometer. Total plasma cholesterol and triglyceride levels were measured using kits No. 11489437 and 11488872 (Roche Diagnostics, Almere, The Netherlands), respectively. The plasma levels of insulin (Ultrasensitive mouse insulin ELISA, Merdocia, Uppsala, Sweden) were determined by ELISA. […]

In test [5] the test system is LDLr knockout mice. Put plainly: Tissue weights at sacrifice, week 21 (Examples 1 and 2). The following applies: sacrifice after 21 weeks. The protocol:
The mice were sacrificed (un-fasted) in week 21. After sacrifice, the following samples were isolated: • Serum Sample by heart puncture • Heart including aortic root (for atherosclerosis analysis) • Aortic arch (thoracic) in −80° C. • Total liver weight, 2 pieces of sinister and caudate lobe in −80° C., medial lobe formalin • Adipose tissue • Sub cutaneous (inguinal): weight, right in −80° C., left in formalin • Epididymal: weight, right in −80° C., left in formalin • Visceral (omental): weight, part in −80° C., part in formalin • Brown adipose tissue weight part in −80° C., part in formalin • Pancreas in −80° C. • Spleen (in formalin) • Kidneys (right in −80° C., left in formalin) • Ileum (last 8 cm before caecum) in −80° C. • Colon (including faeces) in −80° C. • Eyes: left in Davidson formalin, right in −80° C. • Brain (right in −80° C., left in 4% paraformaldehyde
After 21 weeks of dietary treatment, the mice were sacrificed. Tissues were isolated and weighed.
as §3

Test [6] has as its system LDLr knockout mice. Put plainly: Body composition analysis by EchoMRI (Examples 1 and 2). The following applies: absolute values. The protocol:
as §1, §3

As for Lactobacillus rhamnosus GG [LGG], the ALAT in the test with LDLr knockout mice [1] (week 9, pooled plasma) is 66 U/L; with LDLr knockout mice [1] (week 21, pooled plasma) it was 124 U/L. Besides, the “Body weight compared to HFD” value in the test with LDLr knockout mice [2] (after 21 weeks) is “slightly, but not significantly lower compared to HFD”. Moreover, in the test on LDLr knockout mice [2] (after 21 weeks of HFD feeding), the Body weight was 45.8 ± 5.3 g. Besides, the “Plasma triglycerides compared to HFD control” value in the test with LDLr knockout mice [3] (NHLL week 9 until week 21, Peptide component all time points) is “slightly, but not significantly lower compared with HFD control”. Moreover, the “Plasma cholesterol compared to other groups” value in the test with LDLr knockout mice [3] (throughout the study) is “no significant effects on plasma cholesterol”. Besides, the Plasma triglycerides in the test on LDLr knockout mice [3] (week 21) came out at 2.0 ± 1.0 mM. In addition, the “Fasting blood glucose, difference to HFD control” value in the test on LDLr knockout mice [4] (t=9 weeks, temporary drop in HFD control absent in these groups) was “significant differences”. For the same substance, the “Fasting plasma insulin compared to HFD control” value with LDLr knockout mice [4] (week 21 (NHLL, Peptide component), time not stated for LCPUFA, LGG) is recorded as “comparable to the HFD control group”. Further, the “Liver weight compared to HFD” value in the test on LDLr knockout mice [5] is listed as “tended to be lower compared to the HFD”. Further, in the test on LDLr knockout mice [5] (three depots), the “Adipose tissue weights compared to HFD” value is listed as “comparable to HFD”. In addition, the “Total body fat compared to HFD” value in the test with LDLr knockout mice [6] is “No effects on total body fat”.
